Assay [1] deals with KMS11 (human myeloma cell line). In words: Cell Proliferation Assay (CellTiter-Glo, 3 days). The class given is cell-based. The settings on record: KMS-11, 72 h, KMS11-luc cells. In short, it runs like this:
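KMS11 myeloma cells, 2000 per well in IMDM with 10% FBS, exposed to compound for 3 days at 37° C. Viability read by CellTiter-Glo luminescence; EC50 derived.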
In general terms: In ATP-based viability assays light output follows the ATP content of the culture.

Assay [2] has as its target Pim 1 (Homo sapiens, UniProt P11309). As to the kind of experiment: Pim 1 AlphaScreen assay (high ATP). (In general: In Alpha technology, singlet oxygen from a donor bead excites a nearby acceptor bead.)
Assay [3] concerns the target Pim 2 (Homo sapiens, UniProt Q9P1W9). As to the kind of experiment: Pim 2 AlphaScreen assay (high ATP).
The target of assay [4] is Pim 3 (Homo sapiens, UniProt Q86V86). In words: Pim 3 AlphaScreen assay (high ATP).

Broadly, the EC50 is the concentration needed to bring the measured effect to its halfway point. Lower therefore signals greater potency. By IC50 is commonly meant the point on the concentration scale where inhibition reaches its midpoint. A high value points to weaker potency in that assay.

Pim 2, sequence (Q9P1W9 whole entry): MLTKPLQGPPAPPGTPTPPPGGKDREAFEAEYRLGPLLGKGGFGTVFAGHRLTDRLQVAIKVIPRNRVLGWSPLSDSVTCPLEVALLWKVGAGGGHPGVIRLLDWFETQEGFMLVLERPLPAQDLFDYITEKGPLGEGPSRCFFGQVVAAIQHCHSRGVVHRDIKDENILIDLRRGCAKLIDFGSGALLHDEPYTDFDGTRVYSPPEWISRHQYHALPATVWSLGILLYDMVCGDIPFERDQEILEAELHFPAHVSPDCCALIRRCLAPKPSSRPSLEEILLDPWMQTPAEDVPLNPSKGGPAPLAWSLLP
Pim 1, sequence (P11309 whole entry): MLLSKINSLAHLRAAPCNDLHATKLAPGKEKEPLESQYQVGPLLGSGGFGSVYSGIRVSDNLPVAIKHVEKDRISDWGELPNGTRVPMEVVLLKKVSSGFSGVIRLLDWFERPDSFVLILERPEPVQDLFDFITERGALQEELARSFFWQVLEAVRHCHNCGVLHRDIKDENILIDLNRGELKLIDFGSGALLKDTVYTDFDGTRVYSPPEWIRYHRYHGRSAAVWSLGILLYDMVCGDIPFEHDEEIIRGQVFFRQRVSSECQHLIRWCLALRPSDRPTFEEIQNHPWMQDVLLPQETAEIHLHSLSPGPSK

In the case of `C[C@H]1C[C@@H](c2ccncc2NC(=O)c2nc(-c3c(F)cc(C(C)(C)O)cc3F)c(F)cc2N)C[C@@H](N)[C@@H]1O` [Example 101, 3-amino-N-(4-((1R,3R,4R,5S)-3-amino-4-hydroxy-5-methylcyclohexyl)pyridin-3-yl)-6-(2,6-difluoro-4-(2-hydroxypropan-2-yl)phenyl)-5-fluoropicolinamide], the EC50 in assay [1] was found to be 30 nM. The IC50 in assay [2] was 0.02 nM; in assay [3], 1.3 nM; in assay [4], 0.36 nM.
`C[C@H]1C[C@@H](c2ccncc2NC(=O)c2ccc(F)c(-c3c(F)cc(O[C@H]4CCCOC4)cc3F)n2)C[C@@H](N)[C@@H]1O` [Example 80, N-(4-((1R,3R,4R,5S)-3-amino-4-hydroxy-5-methylcyclohexyl)pyridin-3-yl)-6-(2,6-difluoro-4-((S)-tetrahydro-2H-pyran-3-yloxy)phenyl)-5-fluoropicolinamide] had a concentration for a half-maximal effect (EC50) in assay [1] of 24 nM. Moreover, the 50% inhibitory concentration (IC50) in assay [2] was determined as 0.02 nM; in assay [3], 2.16 nM; in assay [4], 0.58 nM.
On the same counts, the results for `C[C@H]1CN(c2ccncc2NC(=O)c2ccc(F)c(-c3c(F)cc([C@@H](O)CO)cc3F)n2)C[C@@H](N)[C@@H]1O` [Example 234, N-(4-((3R,4R,5S)-3-amino-4-hydroxy-5-methylpiperidin-1-yl)pyridin-3-yl)-6-(4-((R)-1,2-dihydroxyethyl)-2,6-difluorophenyl)-5-fluoropicolinamide] are 9 nM, 0.04 nM, 1.77 nM and 0.65 nM.
Regarding `CCOC(C)(C)c1cc(F)c(-c2nc(C(=O)Nc3cnccc3N3C[C@@H](N)[C@H](O)[C@@H](C)C3)ccc2F)c(F)c1` [Example 201, N-(4-((3R,4R,5S)-3-amino-4-hydroxy-5-methylpiperidin-1-yl)pyridin-3-yl)-6-(4-(2-ethoxypropan-2-yl)-2,6-difluorophenyl)-5-fluoropicolinamide], the EC50 in assay [1] turned out to be 239 nM. In addition, the 50% inhibitory concentration (IC50) in assay [2] came to 0.01 nM; in assay [3], 0.98 nM; in assay [4] it was 0.55 nM.
As for `CC(C)Oc1cc(F)c(-c2cccc(C(=O)Nc3cnccc3[C@H]3C[C@@H](N)[C@H](O)[C@@H](C)C3)n2)c(F)c1` [Example 189, N-(4-((1R,3R,4R,5S)-3-amino-4-hydroxy-5-methylcyclohexyl)pyridin-3-yl)-6-(2,6-difluoro-4-isopropoxyphenyl)picolinamide], the EC50 in assay [1] worked out at 470 nM. Besides, the results for the half-maximal inhibitory concentration (IC50) in assay [2], in assay [3] and in assay [4] were 0.04 nM, 2.67 nM and 0.96 nM, respectively.
Consider `C[C@@H]1C[C@H](N)C[C@H](c2ccncc2NC(=O)c2ccc(F)c(-c3c(F)cc(C(C)(C)C(=O)O)cc3F)n2)C1` [Example 181, 2-(4-(6-(4-((1R,3S,5S)-3-amino-5-methylcyclohexyl)pyridin-3-ylcarbamoyl)-3-fluoropyridin-2-yl)-3,5-difluorophenyl)-2-methylpropanoic acid], for which, in assay [1], the EC50 is > 10000 nM. Besides, the IC50 in assay [2] came out at 0.45 nM; in assay [3], 4.75 nM; in assay [4], 20.9 nM.
In assay [1], `C[C@H]1CN(c2ccncc2NC(=O)c2ccc(F)c(-c3c(F)cc([S@+](C)[O-])cc3F)n2)C[C@@H](N)[C@@H]1O` [Example 25, N-(4-((3R,4R,5S)-3-amino-4-hydroxy-5-methylpiperidin-1-yl)pyridin-3-yl)-6-(2,6-difluoro-4-((S)-methylsulfinyl)phenyl)-5-fluoropicolinamide] registered an EC50 of 11 nM. Besides, the IC50 in assay [2] was 0.03 nM; in assay [3] it was 0.94 nM; in assay [4], 0.37 nM.
As for `C[C@H]1C[C@@H](c2ccncc2NC(=O)c2ccc(F)c(-c3c(F)cc4c(c3F)OCC[C@@]4(C)O)n2)C[C@@H](N)[C@@H]1O` [Example 238, N-(4-((1R,3R,4R,5S)-3-amino-4-hydroxy-5-methylcyclohexyl)pyridin-3-yl)-6-((R)-6,8-difluoro-4-hydroxy-4-methylchroman-7-yl)-5-fluoropicolinamide], the half-maximal effective concentration (EC50) in assay [1] stood at 55 nM. The IC50 in assay [2] is 0.04 nM; in assay [3], 3.15 nM; in assay [4], 1.36 nM.
In the case of `COC(C)(C)c1cc(F)c(-c2nc(C(=O)Nc3cnccc3N3C[C@@H](N)[C@H](O)[C@@H](C)C3)ccc2F)c(F)c1` [Example 130, N-(4-((3R,4R,5S)-3-amino-4-hydroxy-5-methylpiperidin-1-yl)pyridin-3-yl)-6-(2,6-difluoro-4-(2-methoxypropan-2-yl)phenyl)-5-fluoropicolinamide], the half-maximal effective concentration (EC50) in assay [1] stood at 24 nM. Further, the IC50 in assay [2] worked out at 0.02 nM; in assay [3], 1.36 nM; in assay [4], 0.42 nM.
For `C[C@H]1CN(c2ccncc2NC(=O)c2ccc(F)c(-c3c(F)cc(O[C@@H]4CCCOC4)cc3F)n2)C[C@@H](N)[C@@H]1O` [Example 105, N-(4-((3R,4R,5S)-3-amino-4-hydroxy-5-methylpiperidin-1-yl)pyridin-3-yl)-6-(2,6-difluoro-4-((R)-tetrahydro-2H-pyran-3-yloxy)phenyl)-5-fluoropicolinamide] the same measures were 96 nM, 0.01 nM, 0.64 nM and 0.17 nM.
For the compound `C[C@@H]1C[C@H](N)C[C@H](c2ccncc2NC(=O)c2cccc(-c3c(F)cc(OC4CCOCC4)cc3F)n2)C1` [Example 187, N-(4-((1R,3S,5S)-3-amino-5-methylcyclohexyl)pyridin-3-yl)-6-(2,6-difluoro-4-(tetrahydro-2H-pyran-4-yloxy)phenyl)picolinamide], the EC50 in assay [1] was found to be 210 nM. Besides, the IC50 came to 0.03 nM in assay [2], 2.47 nM in assay [3] and 1.28 nM in assay [4].
The compound `CCOCc1cc(F)c(-c2nc(C(=O)Nc3cnccc3[C@H]3C[C@@H](N)[C@@H](O)[C@@H](C)C3)ccc2F)c(F)c1` [Example 134, N-(4-((1R,3R,4S,5S)-3-amino-4-hydroxy-5-methylcyclohexyl)pyridin-3-yl)-6-(4-(ethoxymethyl)-2,6-difluorophenyl)-5-fluoropicolinamide] showed a concentration giving a half-maximal response (EC50) in assay [1] of 228 nM. Also, the IC50 in assay [2] amounted to 0.13 nM; in assay [3], 9.57 nM; in assay [4] it was 4.89 nM.
For `C[C@@H]1C[C@H](N)C[C@H](c2ccncc2NC(=O)c2ccc(F)c(-c3c(F)cc(CCO)cc3F)n2)C1` [Example 33, N-(4-((1R,3S,5S)-3-amino-5-methylcyclohexyl)pyridin-3-yl)-6-(2,6-difluoro-4-(2-hydroxyethyl)phenyl)-5-fluoropicolinamide] the same measures were 13 nM, 0.02 nM, 1.52 nM and 1 nM.
On to `C[C@H]1CN(c2ccncc2NC(=O)c2ccc(F)c(-c3c(F)cc([C@H](O)CO)cc3F)n2)C[C@@H](N)[C@@H]1O` [Example 233, N-(4-((3R,4R,5S)-3-amino-4-hydroxy-5-methylpiperidin-1-yl)pyridin-3-yl)-6-(4-((S)-1,2-dihydroxyethyl)-2,6-difluorophenyl)-5-fluoropicolinamide], for which, in assay [1], the EC50 turned out to be 20 nM. Moreover, the IC50 worked out at 0.04 nM in assay [2], 2.2 nM in assay [3] and 1.03 nM in assay [4].
`CC(C)Oc1cc(F)c(-c2nc(C(=O)Nc3cnccc3[C@H]3C[C@@H](N)[C@H](O)[C@@H](C)C3)ccc2F)c(F)c1` [Example 62, N-(4-((1R,3R,4R,5S)-3-amino-4-hydroxy-5-methylcyclohexyl)pyridin-3-yl)-6-(2,6-difluoro-4-isopropoxyphenyl)-5-fluoropicolinamide]: the EC50 in assay [1] is 52 nM. The figures for the IC50 in assay [2], in assay [3] and in assay [4] were 0.01 nM, 1.03 nM and 0.35 nM, respectively.
On the same counts, the results for `Cc1noc(C)c1-c1cc(F)c(-c2nc(C(=O)Nc3cnccc3[C@H]3C[C@@H](N)[C@H](O)[C@@H](C)C3)ccc2F)c(F)c1` [Example 173, N-(4-((1R,3R,4R,5S)-3-amino-4-hydroxy-5-methylcyclohexyl)pyridin-3-yl)-6-(4-(3,5-dimethylisoxazol-4-yl)-2,6-difluorophenyl)-5-fluoropicolinamide] are 2440 nM, 0.26 nM, 58.5 nM and 29.5 nM.
In assay [1], `C[C@@H]1C[C@H](N)C[C@H](c2ccncc2NC(=O)c2ccc(F)c(-c3c(F)cc([C@@H]4CCOC4)cc3F)n2)C1` [Example 206, N-(4-((1R,3S,5S)-3-amino-5-methylcyclohexyl)pyridin-3-yl)-6-(2,6-difluoro-4-((S)-tetrahydrofuran-3-yl)phenyl)-5-fluoropicolinamide] gave an EC50 of 59 nM. For the same compound, the IC50 came out at 0.01 nM in assay [2], 1.66 nM in assay [3] and 0.8 nM in assay [4].
For `COCCOc1ccc(F)c(-c2nc(C(=O)Nc3cnccc3N3C[C@@H](N)[C@H](O)[C@@H](C)C3)ccc2F)c1F` [Example 17, N-(4-((3R,4R,5S)-3-amino-4-hydroxy-5-methylpiperidin-1-yl)pyridin-3-yl)-6-(2,6-difluoro-3-(2-methoxyethoxy)phenyl)-5-fluoropicolinamide] the same measures were 13 nM, 0.03 nM, 1.92 nM and 0.35 nM.
`COC(=O)c1cc(F)c(-c2nc(C(=O)Nc3cnccc3N3C[C@@H](N)[C@H](O)[C@@H](C)C3)ccc2F)c(F)c1` [Example 215, methyl 4-(6-((4-((3R,4R,5S)-3-amino-4-hydroxy-5-methylpiperidin-1-yl)pyridin-3-yl)carbamoyl)-3-fluoropyridin-2-yl)-3,5-difluorobenzoate] had a concentration giving a half-maximal response (EC50) in assay [1] of 36 nM. In addition, the IC50 in assay [2] is 0.06 nM; in assay [3] it was 2.54 nM; in assay [4] it was 0.88 nM.

The record behind these values is patent US20120225062A1 (priority 2011, published 2012).
